# Assay results as given in paper PMC5844530, “Fosmetpantotenate (RE-024), a phosphopantothenate replacement therapy for pantothenate kinase-associated neurodegeneration: Mechanism of action and efficacy in nonclinical models” (PLoS ONE, 2018).
# Values joined by “and” are separate entries in the source; they are usually repeats but may differ in a detail not shown here. Identical values can stand only once.
# Tests used:
# [1] = Pharmacokinetics in whole blood, Sprague-Dawley rats; conditions: Sprague-Dawley rat, metabolite AUCall/Parent AUCall x 100
# [2] = Pharmacokinetics in whole blood, CD-1 mice; conditions: for % Parent AUCAll: CD1 mouse, metabolite AUCall/Parent AUCall x 100; for Whole Blood Conc. of compound 3: CD-1 mice; for concentration at 2 h / concentration at 8 h / concentration at 0.5 h: male, CD-1, mouse, whole blood, po, Whole Blood Conc. of compound 3, CD-1 mice
# [3] = Pharmacokinetics in whole blood, cynomolgus monkeys; conditions: for % Parent AUCAll: Cynomolgus monkey, 300 mg/kg PO, metabolite AUCall/Parent AUCall x 100
# Description: The whole blood samples (0.5 mL) were collected into syringes that were prefilled with 2.5 mL of ice-cold 0.1% formic acid in acetonitrile. The volume ratio of the whole blood to 0.1% formic acid in acetonitrile was 1/5 (v/v). Samples were frozen (-70°C) until analyzed by LC-MS/MS.
# Standard curves and quality control (QC) samples were prepared fresh on the day of analysis by serial dilution of the standard mixture in quenched whole blood (1 part of blood to 5 parts of 0.1% formic acid in acetonitrile) and centrifuged. […] The frozen study samples were thawed in an ice/water bath and centrifuged. Supernatant (50 μL) from standards, QC samples, and study samples was transferred to a 96-well plate and dried completely under nitrogen. The dried residues were reconstituted with 100 μL of 0.1% formic acid in water containing internal standard (5 ng/mL of ^15N/^13C3-RE-024-02) and analyzed by LC-MS/MS.
# LC-MS/MS analysis for blood pharmacokinetic samples: Samples were analyzed using an Agilent 1100 binary pump (Agilent Technologies, Santa Clara, CA, USA), connected to an AB Sciex API 6500 mass spectrometer (SCIEX, Framingham, MA, USA). An electrospray ionization source was used, scanning in the positive mode. […] The chromatography column was a Varian Metasil AQ 120–5 C18 column, 5 μm, 50 x 2.00 mm (Part No. A0530050X020) at ambient temperature, with a 0.5 mL/min flow rate and a 20 μL injection volume. Mobile phase (A) consisted of 0.1% formic acid in water; while mobile phase (B) consisted of 0.1% formic acid in acetonitrile:water (9:1, v/v).
# Quantitation of in vivo samples: Peak areas were integrated using Analyst software (AB Sciex, Concord, Ontario, Canada). […] Calibration standards (at a minimum 7 per curve) were fit by linear regression with (1/x^2) weighting. QC samples were used (triplicate) at 3 concentrations for all tandem mass spectrometry (MS/MS) runs.
# Pharmacokinetic calculations: PK analysis was performed using Phoenix WinNonlin®, Build 6.3.0.395 (Certara, Princeton, NJ, USA) using a non-compartmental model (PO dose = model 200 for extravascular dosing). […] Post-dose concentrations below the limit of quantitation (BLQ) were omitted from calculation.
smiles,measurement,setting,value
CC1(C)COP(=O)(O)O[C@H]1C(=O)NCCC(=O)O [Compound 3],% Parent AUCAll,[1]; 300 mg/kg PO,"4,130%"
same,% Parent AUCAll,[1]; 700 mg/kg PO,209%
same,% Parent AUCAll,[2]; 100 mg/kg PO,"8,900%"
same,% Parent AUCAll,[2]; 300 mg/kg PO,"18,900%"
same,% Parent AUCAll,[2]; 700 mg/kg PO,"1,990%"
same,Whole Blood Conc. of compound 3,"[2]; single 100 mg/kg RE-024-02 PO, 4 hr, LLOQ 6 ng/mL",BQL
same,Whole Blood Conc. of compound 3,"[2]; single 100 mg/kg RE-024-02 PO, 4 hr, LLOQ 21.3 nM",BQL
same,Whole Blood Conc. of compound 3,"[2]; single 700 mg/kg RE-024-02 PO, 0.5 hr, LLOQ 6 ng/mL, 700 mg/kg",126 ng/mL and 156 ng/mL and 189 ng/mL
same,Whole Blood Conc. of compound 3,"[2]; single 700 mg/kg RE-024-02 PO, 0.5 hr, LLOQ 21.3 nM, 700 mg/kg",448.1 nM and 554.8 nM and 672.1 nM
same,Whole Blood Conc. of compound 3,"[2]; single 700 mg/kg RE-024-02 PO, 2 hr, LLOQ 6 ng/mL, 700 mg/kg",67.2 ng/mL and 69.6 ng/mL and 72 ng/mL
same,Whole Blood Conc. of compound 3,"[2]; single 700 mg/kg RE-024-02 PO, 2 hr, LLOQ 21.3 nM, 700 mg/kg",239 nM and 247.5 nM and 256 nM
same,concentration at 2 h,"[2]; 100 mg/kg, single 100 mg/kg RE-024-02 PO, 2 hr, LLOQ 6 ng/mL",6.7 ng/mL
same,concentration at 2 h,"[2]; 100 mg/kg, single 100 mg/kg RE-024-02 PO, 2 hr, LLOQ 21.3 nM",23.7 nM
same,concentration at 8 h,"[2]; 100 mg/kg, single 100 mg/kg RE-024-02 PO, LLOQ 6 ng/mL",6.1 ng/mL
same,concentration at 8 h,"[2]; 100 mg/kg, single 100 mg/kg RE-024-02 PO, LLOQ 21.3 nM",21.6 nM
same,concentration at 8 h,"[2]; 300 mg/kg, single 300 mg/kg RE-024-02 PO, LLOQ 6 ng/mL",7.6 ng/mL
same,concentration at 8 h,"[2]; 300 mg/kg, single 300 mg/kg RE-024-02 PO, LLOQ 21.3 nM",26.9 nM
same,concentration at 0.5 h,"[2]; 700 mg/kg, single 700 mg/kg RE-024-02 PO, 0.5 hr, LLOQ 6 ng/mL",162 ng/mL
same,concentration at 0.5 h,"[2]; 700 mg/kg, single 700 mg/kg RE-024-02 PO, 0.5 hr, LLOQ 21.3 nM",576 nM
same,concentration at 2 h,"[2]; 700 mg/kg, single 700 mg/kg RE-024-02 PO, 2 hr, LLOQ 6 ng/mL",48.2 ng/mL
same,concentration at 2 h,"[2]; 700 mg/kg, single 700 mg/kg RE-024-02 PO, 2 hr, LLOQ 21.3 nM",172 nM
same,% Parent AUCAll,[3],9%
same,concentration at 0.25 h,"[3]; cynomolgus monkey, whole blood, po, 300 mg/kg, Concentration of compound 3 in whole blood, cynomolgus monkeys, single oral 300 mg/kg fosmetpantotenate, 0.25 hr, LLOQ 2.13 nM",5.33 nM
same,concentration at 4 h,"[3]; cynomolgus monkey, whole blood, po, 300 mg/kg, Concentration of compound 3 in whole blood, cynomolgus monkeys, single oral 300 mg/kg fosmetpantotenate, 4 hr, LLOQ 2.13 nM",432 nM
same,concentration at 8 h,"[3]; cynomolgus monkey, whole blood, po, 300 mg/kg, Concentration of compound 3 in whole blood, cynomolgus monkeys, single oral 300 mg/kg fosmetpantotenate, 8 hr, LLOQ 2.13 nM",619 nM
same,Concentration of compound 3 in whole blood,"[3]; cynomolgus monkeys, single oral 300 mg/kg fosmetpantotenate, 0.25 hr, LLOQ 2.13 nM, 300 mg/kg",3.41 nM
same,Concentration of compound 3 in whole blood,"[3]; cynomolgus monkeys, single oral 300 mg/kg fosmetpantotenate, 4 hr, LLOQ 2.13 nM, 300 mg/kg",654.2 nM
same,Concentration of compound 3 in whole blood,"[3]; cynomolgus monkeys, single oral 300 mg/kg fosmetpantotenate, 8 hr, LLOQ 2.13 nM, 300 mg/kg",508.25 nM
COC(=O)[C@H](C)NP(=O)(OCC(C)(C)[C@@H](O)C(=O)NCCC(=O)O)Oc1ccccc1 (stereo partly shown) [Compound 4],% Parent AUCAll,[1]; 300 mg/kg PO,"2,820%"
same,% Parent AUCAll,[1]; 700 mg/kg PO,849%
same,% Parent AUCAll,[2]; 100 mg/kg PO,"3,180%"
same,% Parent AUCAll,[2]; 300 mg/kg PO,"12,600%"
same,% Parent AUCAll,[2]; 700 mg/kg PO,"10,500%"
same,% Parent AUCAll,[3],301%
same,concentration at 0.083 h,"[3]; cynomolgus monkey, in vivo, po, 300 mg/kg, Concentration of compound 4 in whole blood, cynomolgus monkeys, single oral 300 mg/kg fosmetpantotenate, 0.083 hr, sum of diastereomers, LLOQ 1.30 nM",13.2 nM
same,concentration at 2 h,"[3]; cynomolgus monkey, in vivo, po, 300 mg/kg, Concentration of compound 4 in whole blood, cynomolgus monkeys, single oral 300 mg/kg fosmetpantotenate, 2 hr, sum of diastereomers, LLOQ 1.30 nM",5070 nM
same,concentration at 4 h,"[3]; cynomolgus monkey, in vivo, po, 300 mg/kg, Concentration of compound 4 in whole blood, cynomolgus monkeys, single oral 300 mg/kg fosmetpantotenate, 4 hr, sum of diastereomers, LLOQ 1.30 nM",665 nM
same,Concentration of compound 4 in whole blood,"[3]; cynomolgus monkeys, single oral 300 mg/kg fosmetpantotenate, 0.083 hr, sum of diastereomers, LLOQ 1.30 nM, 300 mg/kg",8.08 nM
same,Concentration of compound 4 in whole blood,"[3]; cynomolgus monkeys, single oral 300 mg/kg fosmetpantotenate, 2 hr, sum of diastereomers, LLOQ 1.30 nM, 300 mg/kg",5694.67 nM
same,Concentration of compound 4 in whole blood,"[3]; cynomolgus monkeys, single oral 300 mg/kg fosmetpantotenate, 4 hr, sum of diastereomers, LLOQ 1.30 nM, 300 mg/kg",600.1 nM
